Data as given in article PMC6119295 (International Journal of Neuropsychopharmacology, 2018).
pKi: −log10 of the molar value.

Columns and labels:
dopamine D2 receptor = settings: ref Spetea et al., 2012; cited from earlier work
C57BL6 mice [1] = settings: mouse, in vivo
DOR = DOR (Homo sapiens, UniProt P41143); assay: Opioid receptor binding, DOR
[2] = up to 10 mg/kg; ref Erli et al. 2017; cited from earlier work
C57BL6 mice [3] = settings: mouse, in vivo; remark: listed apart in the source
mice = settings: cited from earlier work
MOR = MOR (Rattus norvegicus, UniProt P33535); assay: Opioid receptor binding, MOR
Chain of MOR (P33535 whole entry): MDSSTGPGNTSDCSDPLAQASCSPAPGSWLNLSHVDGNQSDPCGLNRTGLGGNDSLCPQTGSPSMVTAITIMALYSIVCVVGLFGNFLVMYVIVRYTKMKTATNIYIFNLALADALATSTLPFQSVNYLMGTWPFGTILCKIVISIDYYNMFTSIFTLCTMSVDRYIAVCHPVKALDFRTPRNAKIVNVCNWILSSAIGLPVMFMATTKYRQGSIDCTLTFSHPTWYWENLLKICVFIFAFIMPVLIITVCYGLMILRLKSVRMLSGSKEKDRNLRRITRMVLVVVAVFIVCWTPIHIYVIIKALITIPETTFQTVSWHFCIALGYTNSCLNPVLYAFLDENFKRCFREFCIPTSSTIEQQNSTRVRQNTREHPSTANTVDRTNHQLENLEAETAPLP

caudate putamen = settings: 3.2 mg/kg, ref Zhang et al., 2005, cited from earlier work
[4] = ref White et al., 2015, cited from earlier work
rodents = settings: ref Valenza et al., 2017; cited from earlier work
C57BL6 mice [5] = assay: Morphine-induced analgesia in a hot plate assay; format: in vivo, mouse; settings: dose used in prolactin/rotarod experiments; data not shown

Chain of DOR (P41143 whole entry): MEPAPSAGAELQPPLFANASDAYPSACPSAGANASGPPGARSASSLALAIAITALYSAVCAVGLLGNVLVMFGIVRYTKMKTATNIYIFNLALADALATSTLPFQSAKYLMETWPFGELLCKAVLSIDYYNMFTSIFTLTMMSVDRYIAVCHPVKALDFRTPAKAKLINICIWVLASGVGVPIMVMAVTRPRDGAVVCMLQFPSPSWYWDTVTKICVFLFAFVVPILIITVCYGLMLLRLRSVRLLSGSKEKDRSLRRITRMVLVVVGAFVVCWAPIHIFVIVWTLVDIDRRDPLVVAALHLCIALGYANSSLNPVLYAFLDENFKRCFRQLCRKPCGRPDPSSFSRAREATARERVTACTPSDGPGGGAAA

Which “Affinity and agonism at the dopamine D2 receptor” value (dopamine D2 receptor) does the source give for Oc1cccc(CCN(CCc2ccccc2)CC2CCC2)c1 [MCBPHA, N-methylcyclobutyl-N-phenylethyl-N-3-hydroxyphenylethyl-amine] here?
Its value is “low affinity and no agonism”.

And the “Effect on serum prolactin after LY2444296 pretreatment” value (C57BL6 mice [1])?
The value was “blocked the effect”.

And the pKi (DOR)?
The pKi was 5.52.

And the “Locomotor defects in the rotarod assay” value [2]?
Its value is “neither of these compounds caused locomotor defects”.

What about the “Rotarod incoordination after LY2444296 pretreatment” value (C57BL6 mice [3]) of the same molecule?
Its value is “blocked”.

And the “Potency in peripheral analgesia (acetic acid writhing)” value (mice; mice, ref Spetea et al., 2012)?
Its value is “equally potent as the well-characterized KOR agonist U50,488”.

And the “Efficacy in an analgesia assay in mice” value (mice; ref Spetea et al. 2012, Erli et al. 2017)?
Its value is “efficacy”.

What about the pKi (MOR) of the same molecule?
Its pKi is 6.57.

With COC(=O)[C@@H]1C[C@H](OC(C)=O)C(=O)[C@H]2[C@@]1(C)CC[C@H]1C(=O)O[C@H](c3ccoc3)C[C@]21C [salvinorin A] as the molecule, how does the “Duration of decrease of extracellular dopamine” value (caudate putamen; after administration) read?
Its value is “at least 3 hours”.

And the “Decrease of extracellular dopamine in the caudate putamen” value (caudate putamen; systemic)?
Its value is “over 50%”.

And the “Time after injection at which rotarod incoordination begins returning to normal” value ([4]; 3 mg/kg)?
The value was ≤ 30 min.

With NC(=O)c1ccc(Oc2ccc(CN3CCC[C@H]3c3cccc(F)c3)cc2)c(F)c1 [LY2444296, (S)-3-fluoro-4-(4-((2-(3-fluorophenyl)pyrrolidin-1-yl)methyl)phenoxy)benzamide] as the molecule, how does the “Blockade of U50,488-stimulated prolactin release” value (C57BL6 mice [1]) read?
Its value is “blocks the effects”.

What about the “Effect of antagonist alone on serum prolactin” value (C57BL6 mice [1]) of the same molecule?
Its value is “no effect on prolactin”.

What about the “Duration of action (short-acting)” value (rodents) of the same molecule?
The value was < 48 h.

And the “Effect on morphine-induced analgesia in hot plate assay” value (C57BL6 mice [5])?
The value was “does not inhibit morphine-induced analgesia”.

Which “Effect on the rotarod” value [4] does the source give for COC(=O)[C@@H]1C[C@H](OC(=O)CSC#N)C(=O)[C@H]2[C@@]1(C)CC[C@H]1C(=O)O[C@H](c3ccoc3)C[C@]21C [RB-64] here?
The value was “did not have an effect on the rotarod”.
